Patent publication US8598132B2, “Glycosylated indolocarbazoles, method for obtaining same and uses thereof” (Universidad de Oviedo, priority 2008, dated 2013)

Experiments:
[1] = target: T1, SYK (Homo sapiens, UniProt P43405); experiment: LabChip (Caliper) kinase assay, SYK; assay type: biochemical; details: for inhibition at 0.01 µM: compound at 10 nM; for inhibition at 0.01 µM / inhibition at 0.1 µM: read-out: remaining kinase activity (in %) / percentage of inhibition; for inhibition at 0.1 µM: compound at 100 nM; for IC50: ATP at Km, read-out: CI50 (the source's name)
T1 construct: purchased Carna Biosciences
Protocol: (§1) The analysis of kinase activity described here was performed using LabChip (Caliper Life Sciences), specifically the Caliper LC3000 and the EZ Reader II instruments.
(§2) The kinase assay used measures the conversion of a fluorescent peptide (substrate) to a phosphorylated product. The reaction mixture, in a microplate well, is introduced by a capillary in a chip where the non-phosphorylated substrate and the phosphorylated product are separated by […]. The intensity of the fluorescent signal over time is related to the reaction progress. The phosphorylated product migrates quicker than the non-phosphorylated substrate and the signals of the two forms of the peptide appear as differentiated peaks. The Caliper determines the peak height and calculates the ratio of product to the peak sum (P/(P+S)). This value is used to compare wells with compounds and wells with controls and thus determine the % of inhibition for the given product.
(§3) The followings kinases were used for the enzymatic inhibition studies, between brackets the value of the Michaelis-Menten constant, Km, of the ATP (Adenosine triphosphate) for each kinase, in μM: obtained from Carna Biosciences: MAPKAPK2 (4.6), AurA (3.6), AurB (5), PKCζ (3.8), RSK1 (23.3), PRAK (5), Erk1 (33.4), PKD2 (32.1), CK1d (16.3), CHK1 (33), ABL (61.7), FYN (36), LYNa (17), CHK2 (57.8), MET (79.5), LCK (28.5), SRC (38), GSK3β (7.3), Erk2 (62.1), PKACα (1.7), AKT2 (186.1), INSR (871.8), p38a (396.5), AKT1(48), MSK1 (21.2), PKCβ2 (84.8), ROCK2 (3.3), PIM2 (4.9), AMPK (38.6), KDR (164.8), IRAK4 (196.5), SGK1 (121.8), SYK (33.5); obtained from Invitrogen: CDK2 (57.6), BTK (123), HGK (80); obtained from Upstate: MST2 (36.6), PKGα (16), PAK2 (1.9), IGF1R (320), FGFR1 (171), MARK1 (33), CAMK2δ (22.4), c-TAK1 (66), DYRK1a (18.1), CaMK4 (3.9), FLT3 (350), c-Raf (6.2), P70S6K (95).
(§4) The compounds were dissolved in 100% DMSO and were diluted at 25 times the final concentration desired for the assay. In the case of the determination of Cl50, serial dilutions were made to reach eight concentrations and give rise to the inhibition curve. 1 μL of each concentration is transferred, in duplicate to a 384-well microplate. 12 μL of enzymatic buffer is added to each well containing purified kinase (several suppliers as indicated above), 100 mM HEPES, pH 7.5, 1 mM DTT (Calbiochem), 0.002% Brij-35 (Sigma) and also in presence of 10 mM MgCl2 as cofactor, except for INSR and IRAK4 wherein 10 mM MnCl2 is used instead of MgCl2. For the kinases CAMK26 and CAMK4, 1 mM CaCl2 and 6.7 μg/mL of calmodulin are also added. For KDR kinase, 0.05% of the CHAPSO detergent is added. For the c-Raf kinase, 10 mM MnCl2 is added. For PKCβ2 0.02 μg/mL of PS/PMA is added. For PKGα se 10 μM of cGMP (cyclic guanosine monophosphate) is added. The compound and the enzyme are left for 15 minutes preincubation and, then, the following are added to each well: 12 μL of peptide buffer/ATP containing 100 mM HEPES, pH 7.5, 1.5 μM peptide marker with fluorescein (specific for the corresponding kinase), ATP (at concentration KM), and 0.002% Brij-35 to start the reaction. Generally, the reactions are incubated for 1-1.5 h at ambient temperature to obtain an adequate conversion (15-40%) of the peptide to the phosphorylated product. The reactions were ended by the addition of 45 μL of buffer containing 0 mM EDTA. The microplates were read by the LabChip 3000 using a 12-channel LabChip. The P/(P+S) values were obtained as described above and the CI50 curves were generated using XIfit.
(§5) Table 9a has the 0150 data obtained in pairs of compound-kinase selected from the compounds of formula (VII), (VIII), (IX), (XVI), (XVII) and (XVIII) after taking inhibition measurements at 100 nM and 10 nM. Those couples that provide >70% of inhibition at 10 nM were consider for measuring its IC50. […]

[2] = target: T2, FLT3 (Homo sapiens, UniProt P36888); experiment: LabChip (Caliper) kinase assay, FLT3; assay type: biochemical; details: for inhibition at 0.01 µM / inhibition at 0.1 µM: FLT3, read-out: remaining kinase activity (in %) / percentage of inhibition; for inhibition at 0.01 µM: compound at 10 nM; for inhibition at 0.1 µM: compound at 100 nM; for IC50: Ftl3, ATP at Km, read-out: CI50 (the source's name)
T2 construct: purchased Upstate
T2 sequence (P36888 27-993): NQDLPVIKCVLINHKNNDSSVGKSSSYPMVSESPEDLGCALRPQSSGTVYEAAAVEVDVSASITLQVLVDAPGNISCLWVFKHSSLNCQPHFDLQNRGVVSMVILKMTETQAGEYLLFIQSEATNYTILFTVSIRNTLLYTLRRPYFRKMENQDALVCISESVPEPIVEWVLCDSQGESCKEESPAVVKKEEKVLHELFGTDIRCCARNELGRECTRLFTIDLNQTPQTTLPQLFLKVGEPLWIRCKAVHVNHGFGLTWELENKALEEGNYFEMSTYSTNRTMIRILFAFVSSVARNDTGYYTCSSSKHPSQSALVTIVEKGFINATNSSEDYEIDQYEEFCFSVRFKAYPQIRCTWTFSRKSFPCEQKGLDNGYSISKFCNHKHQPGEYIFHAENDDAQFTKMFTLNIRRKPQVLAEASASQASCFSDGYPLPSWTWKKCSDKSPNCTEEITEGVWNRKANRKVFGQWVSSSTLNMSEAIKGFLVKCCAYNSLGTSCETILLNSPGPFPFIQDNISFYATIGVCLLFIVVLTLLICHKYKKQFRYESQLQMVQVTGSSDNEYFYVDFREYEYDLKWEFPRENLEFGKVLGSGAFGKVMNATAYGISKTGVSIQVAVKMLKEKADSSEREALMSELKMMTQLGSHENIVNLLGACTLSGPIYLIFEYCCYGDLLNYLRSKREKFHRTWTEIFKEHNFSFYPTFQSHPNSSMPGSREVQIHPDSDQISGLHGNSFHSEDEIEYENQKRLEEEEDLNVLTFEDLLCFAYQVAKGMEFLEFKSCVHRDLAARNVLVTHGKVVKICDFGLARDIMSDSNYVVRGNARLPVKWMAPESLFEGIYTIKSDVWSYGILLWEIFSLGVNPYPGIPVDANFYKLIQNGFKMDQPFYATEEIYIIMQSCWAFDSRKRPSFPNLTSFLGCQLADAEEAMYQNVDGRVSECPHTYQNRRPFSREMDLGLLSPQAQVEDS
Protocol: as §1, §2, §3, §4, §5

| Compound | inhibition at 0.01 µM [1] | inhibition at 0.1 µM [1] | inhibition at 0.01 µM [2] | inhibition at 0.1 µM [2] | IC50 [1] | IC50 [2] |
| --- | --- | --- | --- | --- | --- | --- |
| C[C@@H]1O[C@@H](n2c3ccccc3c3c4c(c5c6ccccc6[nH]c5c32)C(=O)NC4=O)[C@H](O)[C@H](O)[C@H]1O [formula (III), N^13-1′-β-L-rhamnosylarcyriaflavin] | 2% | -8% | -10% | 25% | – | – |
| C[C@@H]1O[C@@H](n2c3ccccc3c3c4c(c5c6ccccc6[nH]c5c32)C(=O)NC4=O)C[C@H](O)[C@H]1O [formula (IV), N^13-1′-β-L-olivosylarcyriaflavin] | 11% | 35% | 20% | 81% | – | – |
| C[C@]12O[C@H](C[C@@H](O)[C@H]1O)n1c3ccccc3c3c4c(c5c6ccccc6n2c5c31)C(=O)NC4=O [formula (IX), N^12-5′(S)-N^13-1′-(R)-L-digitoxosylarcyriaflavin] | – | – | – | – | 2.3 nM | 0.43 nM |
| C[C@@H]1O[C@@H](n2c3ccccc3c3c4c(c5c6ccccc6[nH]c5c32)C(=O)NC4=O)C[C@@H](O)[C@H]1O [formula (V), N^13-1′-β-L-digitoxosylarcyriaflavin] | 13% | 24% | 63% | 95% | – | – |
| C[C@H]1O[C@@H](n2c3ccccc3c3c4c(c5c6ccccc6[nH]c5c32)C(=O)NC4=O)C[C@@H](O)[C@@H]1O [formula (VI), N^13-1′-β-D-olivosylarcyriaflavin] | 5% | 31% | 51% | 98% | – | – |
| C[C@]12O[C@H]([C@H](O)[C@H](O)[C@H]1O)n1c3ccccc3c3c4c(c5c6ccccc6n2c5c31)C(=O)NC4=O [formula (VII), N^12-5′(S)-N^13-1′-(R)-L-rhamnosylarcyriaflavin] | – | – | – | – | 1 nM | 0.57 nM |
| C[C@]12O[C@H](C[C@H](O)[C@H]1O)n1c3ccccc3c3c4c(c5c6ccccc6n2c5c31)C(=O)NC4=O [formula (VIII), N^12-5′(S)-N^13-1′-(R)-L-olivosylarcyriaflavin] | – | – | – | – | 1.1 nM | 0.56 nM |
| C[C@@H]1O[C@@H](n2c3ccccc3c3c4c(c5c6ccccc6[nH]c5c32)CNC4=O)[C@H](O)[C@H](O)[C@H]1O [formula (XII), N^13-1′-β-L-rhamnosyl-k252c] | 8% | 10% | -7% | 35% | – | – |
| C[C@@H]1O[C@@H](n2c3ccccc3c3c4c(c5c6ccccc6[nH]c5c32)CNC4=O)C[C@H](O)[C@H]1O [formula (XIII), N^13-1′-β-L-olivosyl-k252c] | 12% | 30% | 34% | 89% | – | – |
| C[C@@H]1O[C@@H](n2c3ccccc3c3c4c(c5c6ccccc6[nH]c5c32)CNC4=O)C[C@@H](O)[C@H]1O [formula (XIV), N^13-1′-β-L-digitoxosyl-k252c] | -1% | 11% | 20% | 79% | – | – |
| C[C@H]1O[C@@H](n2c3ccccc3c3c4c(c5c6ccccc6[nH]c5c32)CNC4=O)C[C@@H](O)[C@@H]1O [formula (XV), N^13-1′-β-D-olivosyl-k252c] | 7% | 29% | 76% | 106% | – | – |
| C[C@]12O[C@H]([C@H](O)[C@H](O)[C@H]1O)n1c3ccccc3c3c4c(c5c6ccccc6n2c5c31)CNC4=O [formula (XVI), N^12-5′(S)-N^13-1′-(R)-L-rhamnosyl-k252c] | – | – | – | – | – | 0.59 nM |
| C[C@]12O[C@H](C[C@H](O)[C@H]1O)n1c3ccccc3c3c4c(c5c6ccccc6n2c5c31)CNC4=O [formula (XVII), N^12-5′(S)-N^13-1′-(R)-L-olivosyl-k252c] | – | – | – | – | – | 0.54 nM |
| C[C@]12O[C@H](C[C@@H](O)[C@H]1O)n1c3ccccc3c3c4c(c5c6ccccc6n2c5c31)CNC4=O [formula (XVIII), N^12-5′(S)-N^13-1′-(R)-L-digitoxosyl-k252c] | – | – | – | – | > 10 nM | – |
